assay: in vitro; settings: human, hela cells

| Structure (SMILES) | viability at 28.5 h, 10 µM |
| --- | --- |
| Nc1ncnc2c1ccn2[C@@H]1O[C@H](CO)[C@H](O)C1O (stereo partly shown) [CBK201176] | 0% |

same assay, conditions: human, hela cells, % viability

| Structure (SMILES) | viability at 28.5 h, 10 µM |
| --- | --- |
| COc1ccc(-c2cc(C(F)(F)F)c3c(n2)sc2c(=O)cc(O)[nH]c23)cc1OC [CBK270201] | 84.6% |
| CCC(Sc1ncccc1C(=O)O)C(=O)O (stereo not shown) [CBK263216] | 98.4% |
| O=C(Cc1cccc2ccccc12)Nc1ccc(Br)cc1C(=O)O [CBK268286] | 99.2% |
| c1ccc(Cn2cc(-c3cncn3CCCN3CCCCC3)cn2)cc1 [CBK281491] | 91.4% |
| CCCNC(=O)c1nn2c(C(F)(F)F)cc(-c3ccccc3)nc2c1Cl [CBK051499] | 110% |
| O=C1CCCC2=C1C(c1ccccc1Cl)n1nnnc1N2 (stereo not shown) [CBK288151] | 93% |
| CN(C)CC(C)(C)CNC(=O)c1cc(C(=O)c2ccc(Cl)cc2Cl)c[nH]1 [CBK107416] | 94.8% |
| Cc1cccc(CC(=O)N2CCCC2c2ccnc3cc(C)nn23)c1 (stereo not shown) [CBK283472] | 105% |
| N#CCCn1cc(C(=O)N2CCCCC2)c(-c2ccc(F)cc2)n1 [CBK306191] | 91.8% |
| Cc1ccc(-n2c(SCC(=O)NCc3ccccc3)nnc2-c2ccccc2O)c(C)c1 [CBK268892] | 91.5% |
| O=C(c1nccs1)C1CCN(C(=O)Cc2ccc(F)cc2)CC1 [CBK284199] | 104% |
| O=C(O)[C@@H]1CSC(c2ccc3c(c2)OCO3)N1 (stereo partly shown) [CBK287214] | 89.8% |
| O=C(O)c1cc(S(=O)(=O)Nc2ccccc2)ccc1O [CBK109969] | 83.2% |
| CC(C)CCC(C)NC(=O)c1ccc(Oc2ccc(F)cc2)cc1 (stereo not shown) [CBK295650] | 88.3% |
| O=C(C1CC1)N1CCC(c2nnc(-c3ccsc3)o2)CC1 [CBK283376] | 91.6% |
| Cn1c(=O)c2c(ncn2CC(=O)Nc2ccc3ccccc3c2)n(C)c1=O [CBK133722] | 81.2% |
| O=C(Nc1ccc(-c2nc3ccccc3o2)c(O)c1)c1ccc(-c2cccc(Cl)c2)o1 [CBK263422] | 95.4% |
| O=C(O)CC1OC(=O)c2cc3c(cc21)C(=O)OC3CC(=O)O (stereo not shown) [CBK262928] | 100% |
| Cc1cccc2cc(CN(Cc3cccnc3)C(=O)Nc3ccccc3Cl)c(=O)[nH]c12 [CBK108869] | 97.9% |
| Cc1cc(COc2nc3ccccc3nc2NC[C@@H]2CCCO2)no1 [CBK174027] | 119% |
| Cc1ccc(CCC(=O)N(CCC#N)C2CCOCC2)c(C)c1 [CBK305809] | 87.4% |
| Cn1c(-c2c(CCC(=O)O)oc3cc(O)ccc3c2=O)nc2ccccc21 [CBK264831] | 96% |

| Structure (SMILES) | viability at 28.5 h, 10 µM |
| --- | --- |
| O=C(NCc1ccccc1)c1ccncc1 [CBK200189] | 108% |
| COc1cc(C2Nc3ccccc3-c3nc(SC)nnc3O2)ccc1OCC(=O)O (stereo not shown) [CBK262687] | 94.3% |
| CN1C(=O)C2(CC(=O)N(CCC3CCCCC3)C2=O)c2cc(Cl)ccc21 (stereo not shown) [CBK075231] | 92% |
| O=C(Nc1ccc(-c2cccc(F)c2)cc1)c1ccccc1Cn1cncn1 [CBK285565] | 95.6% |
| COCCCNC(=O)Cn1cnc2sc(C)cc2c1=O [CBK071899] | 102% |
| Cc1nc2c(c(=O)[nH]1)CC[C@@H]1CN(C(=O)c3cc(F)cc(F)c3)C[C@H]21 [CBK284418] | 101% |
| O=C(Nc1cccc(Cl)c1)Nc1ccc(C(=O)O)c(O)c1 [CBK269518] | 94.2% |
| Cc1nn(C)cc1C(C)NC(=O)c1ccc(CN(C)C)o1 (stereo not shown) [CBK282083] | 96.1% |
| O=C(O)CCNc1ccc(Cl)cc1 [CBK057631] | 75.5% |
| O=C(NCc1ccc(OC(F)(F)F)cc1)c1cnoc1-c1ccc(F)cc1 [CBK154952] | 100% |
| CCCn1ncc(C(=O)NC(C)c2c(C)nn(CC)c2C)c1C (stereo not shown) [CBK281532] | 85.5% |
| COc1ccc(C2NC(C(=O)O)C3C(=O)N(c4ccc(C)cc4)C(=O)C23)c(OC)c1 (stereo not shown) [CBK287233] | 90.2% |
| Cc1cc(=O)oc2cc(OCC(=O)Nc3ccc(S(=O)(=O)O)cc3)ccc12 [CBK301204N] | 89.6% |
| CCOC(=O)c1cn(CC)c2cc(F)c(OCC)cc2c1=O [CBK307139] | 87.8% |
| CCN(Cc1ccccc1)C(=O)NCCc1c[nH]c2ccc(OC)cc12 [CBK155226] | 87% |
| COc1ccc2c(c1)C1(CC(=O)N(Cc3ccc(OC)c(OC)c3)C1=O)C(=O)N2C (stereo not shown) [CBK075157] | 94.4% |
| CCOC(=O)N1CCN(Cc2ccc(OCc3nccn3C)cc2)CC1 [CBK305413] | 94% |
| O=C(NCCc1ccncc1)c1cccs1 [CBK056969] | 107% |
| COc1cccc(CN2CCC3(C/C=C/COc4ccccc4C(=O)NCCNC3=O)CC2)c1F [CBK292025] | 108% |
| COc1cc(CN2CCN(c3ccccn3)CC2)cc(Br)c1O [CBK025770] | 91.9% |
| Cc1nc2cc(-c3nccn3C)nn2c(N2CCN(c3ccc(O)cc3)CC2)c1C [CBK286427] | 92.8% |
| CC(=O)N1CCN(c2ncnc3c2nnn3-c2ccccc2)CC1 [CBK287753] | 92.9% |

| Structure (SMILES) | viability at 28.5 h, 10 µM |
| --- | --- |
| Cc1cc(Br)ccc1NC(=O)Cn1cnc2c1c(=O)n(C)c(=O)n2C [CBK133289] | 95.6% |
| CC(CNc1cc(=O)n2ccccc2n1)CN1CCCC1 (stereo not shown) [CBK305270] | 99.1% |
| Cc1n[nH]cc1C(=O)NC[C@H]1CC[C@H](c2cc(C(=O)NC(C)C)c3ccccc3n2)CC1 [CBK285862] | 96.3% |
| CN(CC(=O)C(C#N)c1ccccc1)Cc1ccccc1 (stereo not shown) [CBK269432] | 96.8% |
| Cc1nn(C)c2ncc(S(=O)(=O)NC(C)c3ccc(F)cc3)cc12 (stereo not shown) [CBK305793] | 93.4% |
| COc1ccc(-c2cc3cccnc3n2CC(=O)NC(C)C)cc1 [CBK285380] | 100% |
| CCc1nccnc1OC [CBK089673] | 101% |
| CCCc1ccc(-c2nccn2CCn2cc(C)nn2)o1 [CBK307688] | 101% |
| Cc1cc(NC(=O)CN2CC=C(c3ccc(C)o3)CC2)no1 [CBK283608] | 106% |
| O=c1c(Cc2ccccc2)c(O)c2cccc3c2n1CCC3 [CBK291166] | 93.3% |
| Cc1cccc(C(C)NC(=O)C2(Cn3ccnc3)CC2)n1 (stereo not shown) [CBK306944] | 86.4% |
| COc1ccc(NC(=O)c2cnn3c2NC(C(=O)O)=CC3c2ccccc2)cc1 (stereo not shown) [CBK287240] | 101% |
| CCCCCCC1N=NC(c2ccc(F)cc2)=CN1O (stereo not shown) [CBK019298] | 94.8% |
| COc1ccc(CC(=O)NCc2nc(-c3ccc(OC)cc3)no2)cc1 [CBK270043] | 92% |
| Cc1noc(N)c1C1OC(=O)c2ccccc21 (stereo not shown) [CBK022932] | 104% |
| S=C1NC2(CCCCC2)NC12CCCCC2 [CBK006533] | 98.5% |
| CCCCNc1nnc(-c2cc(C)nn2C)s1 [CBK288019] | 91.5% |
| Cc1ccc(C(C)C)c(OCc2ccc(C(=O)O)o2)c1 [CBK078089] | 108% |
| CC(=O)N(C)c1nc(-c2cccc(N(C)C)c2)ccc1C(=O)NC1CCS(=O)(=O)C1 (stereo not shown) [CBK076590] | 103% |
| CN(C)CCNCCP(=O)(c1ccccc1)c1ccccc1 [CBK263049] | 104% |
| CC1(C)CCCN(Cc2nnnn2-c2ccc(S(C)(=O)=O)cc2)CC1 [CBK306177] | 81.8% |
| Cc1nc2c(OCc3ccc(F)c(F)c3)cccn2c1N(C)CC1CC1 [CBK147276] | 91.9% |

| Structure (SMILES) | viability at 28.5 h, 10 µM |
| --- | --- |
| O=C(O)C1CCCN(C(=O)NCc2ccc3c(c2)OCO3)C1 (stereo not shown) [CBK161346] | 93.4% |
| CC(NC(=O)c1n[nH]c2c1CCC2)c1cccnc1 (stereo not shown) [CBK281488] | 93.7% |
| COc1ccccc1-c1ncc(OCC(F)(F)F)nc1NC(=O)C1CC1 [CBK145275] | 86.4% |
| Cc1cc(-c2cc(C(=O)NN3CCN(C)CC3)c3cc(Cl)ccc3n2)c(C)s1 [CBK267738] | 102% |
| CCS(=O)(=O)NC1CC(C)(C)Cc2c1cnn2-c1ccc(OC)cc1 (stereo not shown) [CBK306656] | 116% |
| COc1cccc(S(=O)(=O)Nc2nn(Cc3ccc(C)cc3)c3ccccc23)c1 [CBK048043] | 89.8% |
| COc1cc(NC(=O)C(C)Oc2cccc(Cl)c2)c(C(=O)O)cc1OC (stereo not shown) [CBK268470] | 92.4% |
| CCn1cnnc1CNC(=O)N1CCCN(Cc2cccs2)CC1 [CBK305882] | 97.6% |
| COc1cc(Nc2cccc(-c3ccsc3)n2)cc(OC)c1OC [CBK036987] | 97.9% |
| Cc1csc(C(C)NC(=O)NC2CCCN(c3ccn(C)n3)C2=O)n1 (stereo not shown) [CBK304426] | 107% |
| Cc1cn2c(=O)c(C(=O)Nc3ccccc3C)cnc2s1 [CBK287710] | 94.1% |
| Cc1ccc(NS(=O)(=O)c2ccc(NC(=O)c3ccc(CN4CCOCC4)cc3)cc2)c(C)c1 [CBK264815] | 94.5% |
| FC(F)(F)c1cccc(OC2CCCNC2)n1 (stereo not shown) [CBK113290] | 93.2% |
| c1ccc2c(c1)OCC(COc1nccnc1OC1CCN(CC3CC3)CC1)O2 (stereo not shown) [CBK083001T] | 96.5% |
| Cc1ccc(S(=O)(=O)N(CC(=O)NCc2ccco2)c2cccc(C)c2)cc1 [CBK264125] | 93.9% |
| CCN1CC(C(=O)N2CCCC(CN(C)C)C2)CC1=O (stereo not shown) [CBK282064] | 106% |
| CC(=O)NC(CSc1cc(C)nc2ccccc12)C(=O)O (stereo not shown) [CBK286755] | 87.4% |
| C/C(CCc1ccccc1)=N\NC(=O)c1ccc(CN2CCOCC2)cc1 [CBK262752] | 99.5% |
| CN(C)S(=O)(=O)NC1CC(C)(C)Cc2c1cnn2-c1ccccc1 (stereo not shown) [CBK307533] | 94.5% |
| COCCNc1nc(-c2ccc([N+](=O)[O-])cc2)nc2ccccc12 [CBK264819] | 109% |
| CCc1cc(CNC(=O)c2cc(C)nc3c(C)cccc23)on1 [CBK281554] | 108% |
| COc1ccc(NC(=O)CS(=O)(=O)Cc2ccccc2)c([N+](=O)[O-])c1 [CBK266748] | 93.1% |

same assay, conditions: human, hela cells, % viability, bulk resorufin, single well

| Structure (SMILES) | viability at 28.5 h, 10 µM |
| --- | --- |
| O=C(O)Cn1cc(C(=O)c2ccccc2F)c2ccccc21 [CBK287100] | 92.7% |
| COc1ccc2c(c1)COC1(CCN(C(=O)NC3CCCCC3)CC1)O2 [CBK060755] | 111% |

Source: publication PMC12040169 (PLOS Biology, 2025)
